Measurements from patent publication US7026328B2, “Heterocyclic compounds which inhibit leukocyte adhesion mediated by α4 integrins” (Elan Pharmaceuticals, Inc., priority 2002, dated 2006).

What was measured:
[1] = Cassette Dosing and Serum Analysis for Determination of Bioavailability; format: in vivo, rat; conditions: average AUC 0→12 h, male Sprague Dawley rats, single oral cassette dose (6 compounds, total dose 10 mg/kg), plasma
Protocol: The cassette included 5 test articles and a standard compound, for a total dose of 10 mg/kg. Each compound/test article was converted to the sodium salt with equimolar 1 N NaOH and dissolved in water at 2 mg/mL. The cassette was prepared by mixing equal volumes of each of the six solutions. The cassette dosing solution was mixed well and then the pH was adjusted to 7.5–9. The dosing solution was prepared the day before the study and stirred overnight at room temperature.
Male Sprague Dawley (SD) rats from Charles River Laboratories, 6–8 weeks old were used in this screen. Rats were quarantined for at least one day and had continuous access to food and water. On the night before the administration of the cassette, the rats were fasted for approximately 16 h.
Four SD rats were assigned in each cassette. A single dose of the dosing solution was administered orally to each rat. The dosing volume (5 mL/kg) and time were recorded and rats were fed 2 h after dosing.
Blood samples were collected via cardiac puncture at the following time points: 4 h, 8 h and 12 h. Immediately prior to blood collection, rats were anesthetized with CO2 gas within 10–20 seconds. After the 12-h samples were collected, the rats were euthanized via CO2 asphyxiation followed by cervical dislocation.
Blood samples were kept in heparinized microtainer tubes under sub-ambient temperature (4° C.) before they were processed. Blood samples were centrifuged (10000 rpm for 5 minutes) and plasma samples were removed and stored in a −20° C. freezer until analyzed for drug levels. Drug levels in the plasma were analyzed using the following protocol for direct plasma precipitation.
The in vivo plasma samples were prepared in a 1.5 mL 96-well plate, by adding, in order, 100 μL of the test plasma, 150 μL of methanol, followed by vortexing for 10–20 seconds. 150 μL of 0.05 ng/μL of an Internal Standard in acetonitrile were added and vortexed for 30 seconds.
The standard curve samples were prepared in a 1.5 mL 96-well plate, by adding, in order, 100 μL of control mouse plasma, followed by 150 μL of methanol and vortexing for 10–20 seconds. 150 μL of 0.05 ng/μL of an Internal Standard in acetonitrile were added and vortexed for 30 seconds. The samples were spiked with 0–200 ng (10 concentrations) of the compound of interest in 50% methanol to obtain a standard curve range of 0.5 ng/mL–2,000 ng/mL. Again, the sample was vortexed for 30 seconds.
The samples were then spun for 20–30 minutes at 3000 rpm in an Eppendorf microfuge before 80–90% of supernatant was transferred into a clean 96-well plate. The organic solvent was then evaporated until the samples were dry (under N2 at 40° C./30–60 min (Zymark Turbovap)).
The residue was then dissolved in […] mobile phase (50% CH3OH/0.1% TFA). LC/MS/MS was then run using a PE-Sciex API-3000 triple quadurpole mass spectrometer (SN0749707), Perkin-Elmer, Series200auto-sampler, and shimadzu 10A pump. Acquisition was done with PE-Sciex Analyst (v1.1) and data analysis and quantification were accomplished using PE-Sciex Analyst (v1.1). A 5–50 μL sample volume was injected onto a reverse phase ThermoHypersil DASH-18 column (Keystone 2.0×20 mm, 5 μm, PN: 8823025-701) using a mobile phase of 25% CH3OH, 0.1% TFA-100% CH3OH, 0.1% TFA. The run time was about 8 minutes at a flow rate of about 300 μL/minutes.
The Area Under the Curve (AUC) was calculated using the linear trapezoidal rule from t=0 to the last sampling time tx (see Handbook of Basic Pharmacokinetics, Wolfgang A. Ritschel and Gregory L. Kearns, 5th ed, 1999). AUC^0→tx=S((Cn+Cn+1)/2))·(tn+1−tn)[(μg/mL)h]

[2] = biological target: T1, α4β1 integrin (Homo sapiens, UniProt P05556+P13612); experiment: α4β1 Integrin Adhesion Assay: Jurkat Cell Adhesion to Human Plasma Fibronectin; format: cell-based; conditions: Jurkat cells
T1 construct: Jurkat™ cells (maintained in log phase growth) were labeled with Calcein AM; endogenous in cells; host or cells: Jurkat cells
T1 sequence (P13612 34-1032): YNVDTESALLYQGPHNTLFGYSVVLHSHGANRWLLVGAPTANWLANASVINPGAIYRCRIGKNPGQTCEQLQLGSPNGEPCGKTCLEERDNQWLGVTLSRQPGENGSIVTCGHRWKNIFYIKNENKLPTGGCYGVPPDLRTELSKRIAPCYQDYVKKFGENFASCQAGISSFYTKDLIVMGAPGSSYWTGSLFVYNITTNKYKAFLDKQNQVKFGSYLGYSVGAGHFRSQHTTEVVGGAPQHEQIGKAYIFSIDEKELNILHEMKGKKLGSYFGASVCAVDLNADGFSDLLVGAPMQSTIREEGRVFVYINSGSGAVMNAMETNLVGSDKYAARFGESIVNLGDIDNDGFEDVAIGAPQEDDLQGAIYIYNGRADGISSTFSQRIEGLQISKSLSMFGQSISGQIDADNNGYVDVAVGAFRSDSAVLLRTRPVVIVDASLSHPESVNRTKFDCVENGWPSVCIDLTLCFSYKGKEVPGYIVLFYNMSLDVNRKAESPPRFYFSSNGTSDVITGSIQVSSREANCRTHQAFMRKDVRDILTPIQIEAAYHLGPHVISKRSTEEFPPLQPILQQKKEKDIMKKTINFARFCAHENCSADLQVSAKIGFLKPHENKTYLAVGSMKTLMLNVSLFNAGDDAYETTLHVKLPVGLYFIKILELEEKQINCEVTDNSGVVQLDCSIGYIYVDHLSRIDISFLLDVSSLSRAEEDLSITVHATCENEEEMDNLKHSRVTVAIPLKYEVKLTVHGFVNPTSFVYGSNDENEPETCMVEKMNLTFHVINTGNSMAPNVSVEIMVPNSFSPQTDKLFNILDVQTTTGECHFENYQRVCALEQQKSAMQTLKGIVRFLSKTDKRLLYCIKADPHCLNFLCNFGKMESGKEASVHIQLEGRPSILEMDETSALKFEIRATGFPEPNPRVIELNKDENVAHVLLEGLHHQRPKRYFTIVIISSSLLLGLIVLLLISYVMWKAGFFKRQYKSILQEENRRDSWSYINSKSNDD
T1 sequence (P05556 21-798): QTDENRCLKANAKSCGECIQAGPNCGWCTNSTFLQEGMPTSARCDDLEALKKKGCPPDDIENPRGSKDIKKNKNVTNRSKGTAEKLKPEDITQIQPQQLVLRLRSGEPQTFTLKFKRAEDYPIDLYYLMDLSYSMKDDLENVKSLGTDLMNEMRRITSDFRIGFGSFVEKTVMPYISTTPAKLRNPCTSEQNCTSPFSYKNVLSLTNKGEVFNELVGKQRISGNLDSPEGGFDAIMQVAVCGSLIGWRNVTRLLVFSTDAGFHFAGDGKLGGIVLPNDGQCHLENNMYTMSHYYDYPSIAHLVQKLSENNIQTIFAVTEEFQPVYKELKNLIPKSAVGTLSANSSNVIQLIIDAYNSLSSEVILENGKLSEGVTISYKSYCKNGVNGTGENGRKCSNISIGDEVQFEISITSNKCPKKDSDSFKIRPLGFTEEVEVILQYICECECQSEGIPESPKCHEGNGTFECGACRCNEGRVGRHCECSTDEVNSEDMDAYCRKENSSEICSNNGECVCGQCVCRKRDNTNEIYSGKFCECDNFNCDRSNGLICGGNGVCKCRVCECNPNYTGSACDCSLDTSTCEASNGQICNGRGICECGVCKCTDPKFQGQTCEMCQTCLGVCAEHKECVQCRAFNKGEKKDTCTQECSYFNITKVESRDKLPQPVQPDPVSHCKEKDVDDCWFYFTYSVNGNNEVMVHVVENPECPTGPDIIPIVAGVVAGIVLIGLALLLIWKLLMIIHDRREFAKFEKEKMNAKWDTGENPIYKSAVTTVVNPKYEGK
Protocol: 96 well plates (Costar 3590 EIA plates) were coated with human fibronectin (Gibco/BRL, cat #33016–023) at a concentration of 10 μg/mL overnight at 4° C. The plates were then blocked with a solution of bovine serum albumin (BSA; 0.3%) in saline. Jurkat™ cells (maintained in log phase growth) were labeled with Calcein AM according to the manufacturer's instructions, and suspended at a concentration of 2×10^6 cells/mL in Hepes/Saline/BSA. The cells were then exposed to test and control compounds for 30 minutes at room temperature before transfer to individual wells of the fibronectin coated plate. Adhesion was allowed to occur for 35 minutes at 37° C. The wells were then washed by gentle aspiration and pipetting with fresh saline. Fluorescence associated with the remaining adherent cells was quantified using a fluorescence plate reader at EX 485/EM 530.
Cell cultures were prepared by first splitting the stationary phase Jurkat™ cells at 1:10 on day one, and 1:2 on day two to perform assay on day 3. The cells split 1:10 on day one were split 1:4 on day 3 for a day 4 assay.
The assay plates were prepared by first making a working solution of Gibco/BRL Human Fibronectin (cat #33016-023) in PBS++, at 10 μg/mL. A Costar 3590 EIA plate was then coated with 50 μL/well for 2 hours at room temperature (thought it can also be left overnight at 4° C.). Finally the plate was asperated and blocked with Hepes/Saline Buffer, 100 μL/well, for 1 hour at RT followed by washing 3× with 150 μL of PBS++.
Compound dilutions were accomplished by preparing 1:3 serial dilutions of compounds as follows. For each plate (4 compounds/plate) 600 μL were added to 4 Bio-Rad Titertubes in a Titertube rack. […] Using Falcon Flexiplates, 100 μL of Hepes/Saline buffer or human serum were added to rows B through G. A multi-channel pipetter set to 180 μL was used to with four tips spaced evenly the pipetter. Each set of four tubes was mixed 5 times and 180 μL of 2× compound was transferred to the first column of each compound dilution in Row B, leaving Row A empty. 180 μL were added to the other wells in Row A. Serial dilutions were performed down the plate by transferring 50 μL to the next dilution and mixing 5 times, changing tips each time after mixing.
A 20 μg/mL solution in Hepes/Saline buffer or human serum, of 21/6 antibody was the positive control and was set aside in a reagent trough to add to cell suspension plate.
The cell staining was accomplished by first harvesting the log-phase Jurkat™ cells by centrifugation in 50 mL tubes (1100 rpm for 5 minutes). The cells were resuspended in 50 mL PBS++, spun, and resuspend in 20 mL PBS++. The cells were stained by adding 20 μL of Calcein AM for 30 minutes RT. The volume was brought to 50 mL with Hepes/Saline buffer and the cells were counted, spun, and resuspend to 2×10^6 cells/mL in Hepes/Saline buffer or human serum.
The compounds were incubated using the following procedure. In a new flexiplate, 65 μL of stained cells were added to Rows B through H. Then 65 μL of 2× compounds were added to the appropriate rows following the plate setup and mixed three times. 65 μL of 2×-21/6 antibody were added to Row H and mixed 3×. Finally the plate was incubated at room temperature for 30 minutes.
Fibronectin adhesion was measured using a fluorescent plate reader at EX 485/EM 530 after the following work up procedure. After incubation, the cells were mixed three times and 100 μL were transfered to the Fibronectin coated plates and incubated at 37° C. for about 35 minutes. Each plate was washed, row by row, by gently pipetting 100 μL of RT. PBS++ down the sides of the wells and turning the plate 90 degrees to aspirate. This procedure was repeated for a total of 3 washes. Each well was filled with 100 μL after washing by pipetting down the side of the well.
An IC50 value was calculated for each compound, both in the presence of the human serum and in the absence of human serum.

| SMILES | AUC [1] | IC50 ([2]; containing human serum) [nM] | IC50 ([2]; without the human serum) [nM] |
| --- | --- | --- | --- |
| CCN(CC)c1ncc(N(CC)S(=O)(=O)c2ccc(Cl)cc2)c(N[C@@H](Cc2ccc(OC(=O)N3CCCC3)cc2)C(=O)O)n1 [Example 1, N-(2-[N′,N′-diethylamino]-5-[N″-(4-chlorophenylsulfonyl)-N″-ethylamino]pyrimidin-4-yl)-4′-(pyrrolidin-1-ylcarbonyloxy)-L-phenylalanine] | 14.798 (μg/mL)h | 409 | 17 |
| CCN(CC)c1ncc(N(CC)S(=O)(=O)c2ccc(F)cc2)c(N[C@@H](Cc2ccc(OC(=O)N3CCCC3)cc2)C(=O)O)n1 [Example 2, N-(2-[N′,N′-diethylamino]-5-[N″-(4-fluorophenylsulfonyl)-N″-ethylamino]pyrimidin-4-yl)-4′-(pyrrolidin-1-ylcarbonyloxy)-L-phenylalanine] | 15.971 (μg/mL)h | 604 | 1.59 |
| CCN(CC)c1ncc(N(C)S(=O)(=O)c2ccc(F)cc2)c(N[C@@H](Cc2ccc(OC(=O)N3CCCC3)cc2)C(=O)O)n1 [Example 3, N-(2-[N′,N′-diethylamino]-5-[N″-(4-fluorophenylsulfonyl)-N″-methylamino]pyrimidin-4-yl)-4′-(pyrrolidin-1-ylcarbonyloxy)-L-phenylalanine] | 22.271 (μg/mL)h | 1730 | 6.51 |
| CCN(CC)c1ncc(N(C)S(=O)(=O)c2ccc(Cl)cc2)c(N[C@@H](Cc2ccc(OC(=O)N3CCCC3)cc2)C(=O)O)n1 [Example 4, N-(2-[N′,N′-diethylamino]-5-[N″-(4-chlorophenylsulfonyl)-N″-methylamino]pyrimidin-4-yl)-4′-(pyrrolidin-1-ylcarbonyloxy)-L-phenylalanine] | 13.829 (μg/mL)h | 2280 | 19 |
| CCN(CC)c1ncc(N(C)S(=O)(=O)c2ccc(F)cc2)c(N[C@@H](Cc2ccc(OC(=O)N3CCCCC3)cc2)C(=O)O)n1 [Example 5, N-(2-[N′,N′-diethylamino]-5-[N″-(4-fluorophenylsulfonyl)-N″-methylamino]pyrimidin-4-yl)-4′-(piperidin-1-ylcarbonyloxy)-L-phenylalanine] | 2.1654 (μg/mL)h | 1570 | 6 |
| CCN(CC)c1ncc(N(CC)S(=O)(=O)c2ccc(F)cc2)c(N[C@@H](Cc2ccc(OC(=O)N3CCCCC3)cc2)C(=O)O)n1 [Example 6, N-(2-[N′,N′-diethylamino]-5-[N″-(4-fluorophenylsulfonyl)-N″-ethylamino]pyrimidin-4-yl)-4′-(piperidin-1-ylcarbonyloxy)-L-phenylalanine] | 0.5125 (μg/mL)h | 702 | 4.67 |
| CCN(CC)c1ncc(N(CC)S(=O)(=O)c2ccc(F)cc2)c(N[C@@H](Cc2ccc(OC(=O)N3CCC3)cc2)C(=O)O)n1 [Example 7, N-(2-[N′,N′-diethylamino]-5-[N″-(4-fluorophenylsulfonyl)-N″-ethylamino]pyrimidin-4-yl)-4′-(azetidin-1-ylcarbonyloxy)-L-phenylalanine] | 0.8979 (μg/mL)h | 86.2 | 1.63 |
| C#CCN(c1cnc(N(CC)CC)nc1N[C@@H](Cc1ccc(OC(=O)N2CCCC2)cc1)C(=O)O)S(=O)(=O)c1ccc(F)cc1 [Example 15, N-(2-[N′,N′-diethylamino]-5-[N″-(4-fluorophenylsulfonyl)-N″-propargylamino]pyrimidin-4-yl)-4′-(pyrrolidin-1-ylcarbonyloxy)-L-phenylalanine] | 90.317 (μg/mL)h |  |  |
| C#CCN(c1cnc(N(CC)CC)nc1N[C@@H](Cc1ccc(OC(=O)N2CCCC2)cc1)C(=O)O)S(=O)(=O)c1ccc(Cl)cc1 [Example 19, N-(2-[N′,N′-diethylamino]-5-[N″-(4-chlorophenylsulfonyl)-N″-propargylamino]pyrimidin-4-yl)-4′-(pyrrolidin-1-ylcarbonyloxy)-L-phenylalanine] |  | 6280 | 6.93 |
